Measured values reported in patent US10100010B1, “4-methoxy pyrrole derivatives or salts thereof and pharmaceutical composition comprising the same” (Daewoong Pharmaceutical Co., Ltd., priority 2015, dated 2018).

Experiments:
[1] = tested on: basal gastric acid secretion in pylorus-ligated rats; experiment: Inhibitory effects on basal gastric acid secretion in pylorus-ligated rats (Shay's rat model); type: in vivo, Sprague Dawley (SD) rats; conditions: 2.0 mg/kg into the duodenum, 5 hours after ligation
Description: Inhibitory effects of the compounds prepared in Examples 2, 8 and 22 on basal gastric acid secretion were measured according to Shay's rat model (Shay, H., et al., 1945, gastroenterology, 5, p 43-61). Male Sprague Dawley (SD) rats (body weight 180-220 g) were divided into 4 groups (n=6-7) and fasted for 18 hours with free access to water. Under isoflurane anesthesia, the abdomens of the rats were incised and then the pylorus was ligated. Immediately after ligation, control group was administered with 2 mL/kg of 0.5% methyl cellulose (MC) aqueous solution into the duodenum, and the other groups were administered with test compounds suspended in 0.5% methyl cellulose (MC) aqueous solution at a dose of 2.0 mg/kg/2 ml. 5 hours after ligation, the test animals were sacrificed, and gastric contents were removed. The removed contents were centrifuged at 4,000×g for 10 minutes and the supernatant was separated to obtain the gastric juice. The amount and pH of the gastric juice were measured and the acidity in the gastric juice was measured by 0.1N NaOH volume (ueq/mL) required for the titration of gastric acid to pH 7.0. Total acid output was measured by multiplying the acidity of the gastric juice by the amount of the gastric juice. % inhibitory activity of test compounds were calculated according to the following equation, and the results are shown in Table 2. % inhibitory activity of test compound=[(total acid output of control group-total acid output of the group treated with test compounds)/total acid output of control group]×100 [Equation 1]

[2] = tested on: indomethacin-induced gastric damage in rats; experiment: Gastric damage inhibitory activity against indomethacin-induced gastric damage in rats; type: in vivo, Sprague Dawley (SD) rats; conditions: 2.0 mg/kg oral, 1 hour before indomethacin 80 mg/kg
Description: The inhibitory activity against the gastric damage of the compounds prepared in Examples 2 and 8 was measured using indomethacin model (Chiou., Et al., 2005, gastroenterology, 128, p 63-73). Male Sprague Dawley (SD) rats (body weight 180-220 g) was divided into 5 groups (n=10) and fasted for 24 hours with free access to water. Control group was orally administered with 5 mL/kg of 0.5% methyl cellulose (MC) aqueous solution, and the other groups were orally administered with test compounds suspended in 0.5% methyl cellulose (MC) aqueous solution at a dose of 2.0 mg/kg/5 ml. For comparison, the compound of Example 134 (Comparative Example 1) and the compound of Example 165 (Comparative Example 2) in International Patent Publication No. WO 2006/036024 were orally administered at a dose of 2.0 mg/kg/5 ml by suspending 0.5% methylcellulose (MC) aqueous solution, respectively. […] The incised stomach was placed on a fixture, fixed by a fixing pin while spreading out using a forcep and then the gastric damage area was measured. % Inhibitory activity of test compounds was calculated according to the following Equation 2, and the results are shown in Table 3. % Inhibitory activity of test compound=[1−(gastric damage area % of the group treated with test compounds)/(gastric damage area % of control group)]×100 [Equation 2]

[3] = tested on: H. pylori; experiment: Antimicrobial activity against H. pylori, MIC by agar dilution method; type: cell-based; conditions: Helicobacter pylori

## CNCc1cn(S(=O)(=O)c2cccc(F)c2)c(-c2ccc(F)cc2F)c1OC.Cl [Example 8, 1-(5-(2,4-difluorophenyl)-1-((3-fluorophenyl)sulfonyl)-4-methoxy-1H-pyrrol-3-yl)-N-methylmethanamine hydrochloride]
[1]
  % inhibitory activity (total acid output): 90.5%
[2]
  % inhibitory activity (gastric damage area): 92.2%
[3]; strain 45 (HPKTCC B0004)
  MIC: 75 µg/mL
[3]; strain 51 (HPKTCC B0006)
  MIC: 75 µg/mL
[3]; strain 52 (HPKTCC B0007)
  MIC: 75 µg/mL
[3]; strain 92-33-1 (HPKTCC B0182)
  MIC: 75 µg/mL
[3]; strain 92-82-1 (HPKTCC B0233)
  MIC: 75 µg/mL
[3]; strain 92-157 (HPKTCC B0152)
  MIC: 75 µg/mL
[3]; strain 118 (HPKTCC B0017)
  MIC: 150 µg/mL
[3]; strain 126 (HPKTCC B0020)
  MIC: 150 µg/mL
[3]; strain 127 (HPKTCC B0021)
  MIC: 75 µg/mL
[3]; strain 133 (HPKTCC B0023)
  MIC: 37.5 µg/mL
[3]; strain 134 (HPKTCC B0024)
  MIC: 75 µg/mL
[3]; strain 138 (HPKTCC B0026)
  MIC: 75 µg/mL
[3]; strain 156 (HPKTCC B0035)
  MIC: 150 µg/mL
[3]; strain 159 (HPKTCC B0037)
  MIC: 150 µg/mL
[3]; strain 164 (HPKTCC B0040)
  MIC: 75 µg/mL
[3]; strain 183 (HPKTCC B0047)
  MIC: 150 µg/mL
[3]; strain 193 (HPKTCC B0051)
  MIC: 75 µg/mL
[3]; strain 198 (HPKTCC B0055)
  MIC: 75 µg/mL
[3]; strain 205 (HPKTCC B0058)
  MIC: 75 µg/mL
[3]; strain 210 (HPKTCC B0061)
  MIC: 75 µg/mL
[3]; strain 221 (HPKTCC B0068)
  MIC: 75 µg/mL
[3]; strain 228 (HPKTCC B0071)
  MIC: 75 µg/mL
[3]; strain 235 (HPKTCC B0074)
  MIC: 75 µg/mL
[3]; strain 236 (HPKTCC B0075)
  MIC: 75 µg/mL
[3]; strain 302 (HPKTCC B0088)
  MIC: 75 µg/mL
[3]; strain 26695 (HPKTCC B0100)
  MIC: 75 µg/mL
[3]; strain 26695 CHGKG (HPKTCC B3412)
  MIC: 150 µg/mL
[3]; strain CH24 (HPKTCC B0508)
  MIC: 75 µg/mL
[3]; strain CH94 (HPKTCC B0582)
  MIC: 37.5 µg/mL
[3]; strain CH173 (HPKTCC B0494)
  MIC: 75 µg/mL
[3]; strain CH175 (HPKTCC B0496)
  MIC: 75 µg/mL
[3]; strain CH189 (HPKTCC B0498)
  MIC: 75 µg/mL
[3]; strain CH192 (HPKTCC B0500)
  MIC: 75 µg/mL
[3]; strain CH272 (HPKTCC B0516)
  MIC: 75 µg/mL
[3]; strain CH369 (HPKTCC B0522)
  MIC: 75 µg/mL
[3]; strain CH381 (HPKTCC B0524)
  MIC: 75 µg/mL
[3]; strain CH498 (HPKTCC B0536)
  MIC: 75 µg/mL
[3]; strain CH502 (HPKTCC B0537)
  MIC: 75 µg/mL
[3]; strain CH523 (HPKTCC B0541)
  MIC: 75 µg/mL
[3]; strain CH541 (HPKTCC B0548)
  MIC: 75 µg/mL
[3]; strain CH588 (HPKTCC B0556)
  MIC: 75 µg/mL
[3]; strain CH609 (HPKTCC B0558)
  MIC: 75 µg/mL
[3]; strain CH612 (HPKTCC B0559)
  MIC: 75 µg/mL
[3]; strain CH631 (HPKTCC B0560)
  MIC: 75 µg/mL
[3]; strain CH635 (HPKTCC B0562)
  MIC: 75 µg/mL
[3]; strain CH674 (HPKTCC B0564)
  MIC: 75 µg/mL
[3]; strain CH1056 (HPKTCC B0487)
  MIC: 75 µg/mL
[3]; strain CJH7 (HPKTCC B0606)
  MIC: 75 µg/mL
[3]; strain CJH8 (HPKTCC B0608)
  MIC: 37.5 µg/mL
[3]; strain CJH9 (HPKTCC B0610)
  MIC: 75 µg/mL
[3]; strain CJH10 (HPKTCC B0587)
  MIC: 75 µg/mL
[3]; strain CJH13 (HPKTCC B0589)
  MIC: 75 µg/mL
[3]; strain CJH31 (HPKTCC B0594)
  MIC: 75 µg/mL
[3]; strain CJH33 (HPKTCC B0595)
  MIC: 75 µg/mL
[3]; strain CJH43 (HPKTCC B0596)
  MIC: 75 µg/mL
[3]; strain CJH50 (HPKTCC B0599)
  MIC: 75 µg/mL
[3]; strain G88001 (HPKTCC B0722)
  MIC: 75 µg/mL
[3]; strain G88007 (HPKTCC B0725)
  MIC: 75 µg/mL
[3]; strain J99 (HPKTCC B0748)
  MIC: 75 µg/mL
[3]; strain SS1-P-4′ (HPKTCC B3392)
  MIC: 37.5 µg/mL
